# Source: PubChem BioAssay (NCI)
# Where “and” joins values, the source holds several entries; their conditions need not be identical. Equal values may be shown once.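 48-hour exposure; five concentrations; linearly interpolated endpoints. GI50 = concentration required for 50% inhibition of growth. TGI: concentration producing complete growth inhibition.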
# Experiments:
# Experiment in all cases: NCI-60 cell line screen, 48 h
# BT-549 breast = test system: BT-549 breast
# COLO 205 colon = test system: COLO 205 colon
# DU-145 prostate = test system: DU-145 prostate
# HCC-2998 colon = test system: HCC-2998 colon
# HL-60(TB) leukemia = test system: HL-60(TB) leukemia
# HOP-92 NSCLC = test system: HOP-92 NSCLC
# MDA-MB-435 = test system: MDA-MB-435
# NCI-H23 lung = test system: NCI-H23 lung
# SK-OV-3 ovarian = test system: SK-OV-3 ovarian
# U251 CNS = test system: U251 CNS
SMILES,GI50 (BT-549 breast) [µM],TGI (BT-549 breast) [µM],GI50 (COLO 205 colon) [µM],TGI (COLO 205 colon) [µM],GI50 (DU-145 prostate),TGI (DU-145 prostate),GI50 (HCC-2998 colon) [µM],TGI (HCC-2998 colon),GI50 (HL-60(TB) leukemia) [µM],TGI (HL-60(TB) leukemia),GI50 (HOP-92 NSCLC),TGI (HOP-92 NSCLC) [µM],GI50 (MDA-MB-435),TGI (MDA-MB-435),GI50 (NCI-H23 lung) [µM],TGI (NCI-H23 lung),GI50 (SK-OV-3 ovarian) [µM],TGI (SK-OV-3 ovarian) [µM],GI50 (U251 CNS),TGI (U251 CNS)
C=C1C[C@@H]2C/C=C/C(=O)C/C(C)=C\C=C\C(=O)O[C@H](C=O)C/C(C)=C/[C@H](C1)O2,0.315,0.94,0.885,17.7,0.455 µM,2.32 µM,0.77,3.32 µM,0.243,0.781 µM,0.367 µM,2.34,316 nM,> 100 µM,5.16,23.1 µM,5.36,> 100,0.711 µM,14.1 µM
CC1(C)COCN1COC1CCCCC1,,> 100,,> 100,,> 100 µM,,> 100 µM,,,,> 100,,> 100 µM,,> 100 µM,,> 100,,> 100 µM
N#CC1=C(N)OC2=C(COc3ccc(F)cc32)C1c1ccc(Cl)cc1 (stereo unspecified),27.3,73.5,,,44.1 µM,> 100 µM,25.6,60.2 µM,33.5,86 µM,30.5 µM,> 100,28500 nM,> 100 µM,29.6,93.6 µM,53.1,> 100,32.6 µM,> 100 µM
O=C(c1cc(F)c(Cl)cc1Cl)N1N=C(c2ccccc2)CC1(O)c1ccccc1 (stereo unspecified),17.7,40.5,17,31.4,17.3 µM,35.9 µM,16.9,37.8 µM,17.4,41.2 µM,13 µM,29.8,22100 nM,49.4 µM,20.2,48.2 µM,28.4,80.1,18.4 µM,38.5 µM
O=C1CCCCCCCC/C=C/CCC(c2ccco2)O1 (stereo unspecified),37.1,> 100,68,> 100,57.2 µM,> 100 µM,> 100,> 100 µM,14.5,38.7 µM,50.5 µM,> 100,99600 nM,> 100 µM,> 100,> 100 µM,> 100,> 100,31.4 µM,> 100 µM
c1ccc(C(=NNc2nc3ccccc3o2)c2ccccn2)nc1,0.153,,0.0194,14.4,0.0775 µM,19.4 µM and > 34.3 µM,0.0972,18.4 µM and 1.96 µM,0.0323,0.289 µM and 1.14 µM,0.0751 µM,,273 nM,34.6 µM and 28.3 µM,0.0617,26.6 µM and 27.9 µM,0.0518,,0.0649 µM,20.1 µM and 16.1 µM
CC(C)(C)C(=O)Nc1ccccc1I(=O)=O,> 100,> 100,> 100,> 100,> 100 µM,> 100 µM,> 100,> 100 µM,> 100,> 100 µM,> 100 µM,> 100,> 100000 nM,> 100 µM,> 100,> 100 µM,> 100,> 100,> 100 µM,> 100 µM
Cc1ccccc1CN1CC2=C(CCN(Cc3ccccc3)C2=O)N2CCN=C12,,> 100,,> 100,,> 100 µM,,> 70.6 µM,,> 100 µM,,> 100,,> 100 µM,,> 100 µM,,> 52.6,,> 100 µM
N#CC1=C(N)NC(=S)NC12Nc1ccccc1O2 (stereo unspecified),48.2,> 100,28.1,> 100,55.1 µM,> 100 µM,,,17.2,> 100 µM,> 100 µM,> 100,16800 nM,> 100 µM,20.4,69.7 µM,37.9,> 100,28.2 µM,> 100 µM
OC(C1=C/C(=C\c2ccncc2)c2ccccc21)c1ccncc1 (stereo unspecified),,57.9,,29.3,,62.2 µM,,22.3 µM,,15.7 µM,,49.7,,27.9 µM,,39.2 µM,,31.8,,31.4 µM
S=c1nc(Oc2ccc(Cl)c(Cl)c2)[nH]c(=S)[nH]1,,> 100,,> 60.4,,> 100 µM,,37.9 µM,,> 100 µM,,60.9,,> 100 µM,,> 63.3 µM,,> 100,,99.4 µM
COc1ccc(/C=C\c2cc(OC)c(OC)c(OC)c2)cc1OC(=O)C(N)CCC(=O)O (stereo unspecified),,0.00299,,,0.000364 µM and 0.000444 µM and < 0.0001 µM,,,,0.00017,0.000422 µM and 0.00275 µM,0.00298 µM and 0.000791 µM,0.0086,0.169 nM and 0.049 nM,0.000799 µM and 0.000118 µM,,0.000785 µM and 0.0056 µM,,> 100,0.000543 µM and 0.000132 µM,
O=C(/C=C/C=C/c1ccccc1)CCc1ccccc1,,> 100,,> 100,,> 100 µM,,> 100 µM,,53 µM,,> 100,,> 100 µM,,> 100 µM,,> 100,,> 100 µM
O=[N+]([O-])c1ccc(-c2nc(N(CCO)CCO)c3ccccc3n2)o1,0.174,0.758,0.118,0.264,0.0352 µM,0.303 µM,0.194,0.442 µM,0.311,2.91 µM,0.247 µM,0.831,309 nM,1.27 µM,0.1,0.314 µM,0.156,0.401,0.229 µM,1.34 µM
N#CC1=C(N)N=C(N2CCCCC2)C(C#N)C12Nc1ccccc1S2 (stereo unspecified),33.3,> 100,29.3,82.6,43 µM,> 100 µM,,,85.4,> 100 µM,26.9 µM,> 100,18.4 nM,14.3 µM,16.7,52.8 µM,39.1,> 100,17 µM,> 100 µM
